Measured values published in paper PMC7504728, “Bioactivities of Lyngbyabellins from Cyanobacteria of Moorea and Okeania Genera” (Molecules, 2020).
Where two headings read alike, the source gives them in different places.

Legend:
H460, Neuro-2a = conditions: range over H460, Neuro-2a; cited from earlier work
Source text: (§1) Table 2 Diversity of biological activities reported for Lyngbyabellins in the literature from 2000 to 2020. | column: IC50 (µM)

H460 = conditions: cited from earlier work
Source text: as §1

[1] = tested on: Amphibalanus amphitrite barnacle larvae; assay: Antifouling (settlement inhibition) assay on A. amphitrite cyprids; format: in vivo
Procedure: As for all the compounds, the activity remained after 120 h of exposure.
The antifouling activity of the compounds was determined according to a procedure reported previously. Briefly, the newly developed cyprids of A. amphitrite were tested against several different concentrations of the isolated compounds (1–5) (0.03–10 μg/mL) in triplicate (n = 3). The assays were conducted using 24-well polystyrene culture plates, with each well containing 2 mL seawater and six cyprids. […] The total number of dead cyprids was counted after 120 h of exposure. Antifouling activity was expressed as an EC50 according to Probit analysis. CuSO4 was used as a positive control and 80% filtered (0.20 µm of pore filter) natural seawater (diluted with deionized water) as a negative control.

MCF7 breast cancer cells [2] = assay: Cytotoxicity MTT assay on MCF7 breast cancer cells; format: cell-based, human; conditions: MTT after 72 h incubation; for IC50: 37 °C, read-out: IC50, cytotoxicity with respect to MCF7 breast cancer cells
Procedure: The cytotoxicity of the compounds was determined according to a procedure reported previously. MCF7 breast cancer cells were maintained in RPMI-1640 medium with 10% fetal bovine serum (FBS). The cells were plated into 96-well plates with a density of 1.0 × 10^4 cells per well. After 24 h incubation, the cells were exposed to different concentrations of compounds, with cisplatin as a positive control and with 1% filtered ethanol as a negative control. The MTT assay was conducted after 72 h of incubation at 37 °C and 5% CO2.

H460, Neuro-2a, MCF7 = conditions: range over H460, Neuro-2a, cited from earlier work
Source text: as §1

HT29, HeLA = conditions: range over HT29, HeLA; cited from earlier work
Source text: as §1

Plasmodium [3] = conditions: antimalarial; pLDH; cited from earlier work
Source text: (§2) Table 1 Structural diversity and antimalarial potential of secondary metabolites derived from cyanobacteria. | column: IC50 (µM) || As part of an effort to identify antiplasmodial and antifouling metabolites, two cyanobacteria from two geographically distinct environments were studied: a Malaysian Moorea bouillonii and a Red Sea Okeania sp. Moorea and Okeania genera were delineated from the Lyngbya genus. As phylogenetically close genera, they produce similar compounds. In this study, the lyngbyabellin family depsipeptides were isolated from Moorea bouillonii and Okeania sp. These kinds of compounds were initially found in the sea hare Dolabella auricularia after being identified from cyanobacterial origins as p ...

Plasmodium [4] = conditions: antimalarial, cited from earlier work
Source text: Table 1 Structural diversity and antimalarial potential of secondary metabolites derived from cyanobacteria. | column: IC50 (µM)

KB = conditions: cited from earlier work
Source text: as §1

[5] = tested on: various cancer cell lines; conditions: cited from earlier work
Source text: as §2, with “As” for “Table 1 Structural diversity and antimalarial potential of secondary metabolites derived from cyanobacteria. | column: IC50 (µM) || As”

HT29, HeLA, MCF7 = conditions: range over HT29, HeLA, MCF7 value from current study; cited from earlier work
Source text: as §1

KB, LoVo = conditions: range over KB; cited from earlier work
Source text: as §1

H460, HCT116 = conditions: range over H460, HCT116; cited from earlier work
Source text: as §1

[6] = tested on: Plasmodium falciparum strain FCR-3; assay: Antiplasmodial assay, Giemsa staining; format: cell-based
Procedure: Compound 1 isolated from Okeania sp., and compounds 6 and 7 from M. bouillonii were tested against the malaria parasite (P. falciparum). […] The assay was repeated three times in the concentration range of 0.05–10 (μg/mL). It is noteworthy that the mechanisms of antiplasmodial compounds isolated from M. bouillonii impeding the growth of Plasmodium are still unclear. […] However, as 1 and 7 were reported as cytotoxic towards cancer cells, we hypothesized that they act in the same way on erythrocytes, which distorts the results of the antimalarial assay.
The Giemsa staining method previously described by Aydin-Schmidt was used to evaluate the ability of compounds to inhibit the malaria parasite. A synchronized culture of Plasmodium falciparum strain FCR-3, the late-ring stage, was used (parasitemia 2%) for this assay. A series of compound concentrations were applied in 96-well microplates and incubated for 72 h at 37 °C in a reduced oxygen atmosphere. Compounds 1, 6, and 7 were dissolved in DMSO and tested in triplicate at three separate times. Chloroquine was used as a positive control and cultured medium with 1% DMSO (final concentration of solvent in all compound tested) as a negative control. Each assay was conducted in triplicate (n = 3). After 72 h, the parasitic level was evaluated by Giemsa and light microscopy. The inhibition level of compounds against Plasmodium was calculated using the formula previously reported.

HT29, HeLA, KB, LoVo = conditions: range over HT29, HeLA; cited from earlier work
Source text: as §1

[7] = tested on: P. falciparum (liver-stage); conditions: cited from earlier work
Source text: as §1

[8] = tested on: Amphibalanus amphitrite barnacle larvae; set-up: method as in PMID 29019684; conditions: A.amphitrite barnacle cypris; cited from earlier work
MCF7 breast cancer cells [9] = conditions: cited from earlier work
Source text: These differences in cytotoxicity were attributed to the dissimilarities in their structures.

HT29, HeLA, CA46, PtK2 = conditions: range over HT29, HeLA; cited from earlier work
Source text: as §1

[10] = A.amphitrite barnacle cypris, current study
[11] = strain FCR-3, late-ring (intraerythrocytic) stage, parasitemia 2%, 72 h, 37 °C, 0.05–10 μg/mL, repeated three times, triplicate, read-out: IC50 against malaria parasite (P. falciparum)
[12] = previous study, read-out: IC50, cytotoxicity with respect to MCF7 breast cancer cells

Lyngbyabellin E
IC50 (H460, Neuro-2a): 0.4 to 1.2 µM

Lyngbyabellin M
IC50 (µM) (H460): Inactive

lyngbyabellin H [Compound 4]
Antifouling activity at 10 µg/mL ([1]; 10 µg/mL, 48 h exposure, triplicate (n = 3)): inactive | EC50(µg/mL) [1, 10]: Inactive | IC50 (MCF7 breast cancer cells [2]): 0.07 µM | IC50 (H460, Neuro-2a, MCF7; MCF7 value from current study): 0.07 to 1.4 µM

Lyngbyabellin J
IC50 (HT29, HeLA): 0.041 to 0.054 µM

Mabunamide
IC50 (Plasmodium [3]): 1.4 µM

C/C1=C/C(=O)O[C@H](C(C)(C)C)CCC[C@H](O)CCC[C@H](O)CCC[C@H](O)CCC[C@@H](O)C[C@@H](O)C[C@H](O)CCC[C@@H](O)CCC[C@@H](O)C[C@@H](O)CCCCC1 [Bastimolide A]
IC50 (Plasmodium [4]; Sybr Green): 0.27 µM

Hoshinoamide A
IC50 (Plasmodium [3]): 5.2 µM

Lyngbyabellin D
IC50 (KB): 0.1 µM

Dolastatin 10
IC50 (Plasmodium [3]): 0.0001 µM | Selectivity index against various cancer cell lines [5]: ≤ 1

C/C1=C/C(=O)O[C@H](CCC[C@@H](O)CCC[C@@H](O)CCC[C@@H](O)CCC[C@H](O)C(C)(C)C)C[C@@H](O)C[C@H](O)CCC[C@@H](O)CCC[C@@H](O)C[C@@H](O)CCCCC1 [Bastimolide B]
IC50 (Plasmodium [4]; Pico-Green): 5.7 µM

Dolastatin 15
IC50 (Plasmodium [3]): 0.0024 µM

Lyngbyabellin F
IC50 (H460, Neuro-2a): 1 to 1.8 µM

Dragomabin
IC50 (Plasmodium [4]; Pico-Green): 6 µM

Lyngbyabellin L
IC50 (µM) (H460): Inactive

27-deoxylyngbyabellin A [Compound 5]
EC50 [1, 10]: 0.09 mg/L | Toxicity to A.amphitrite barnacle cypris (remark in EC50 cell) ([1]; current study): 0.09 (but toxic) | Toxicity to larvae ([1]; exposed to 1 µg/mL, dead cyprids counted after 120 h of exposure): almost all the larvae were dead | IC50 (MCF7 breast cancer cells [2]): 0.31 µM | IC50 (HT29, HeLA, MCF7): 0.0073 to 0.31 µM

Companeramide A
IC50 (Plasmodium [4]; Sybr Green): 5.7 µM

Lyngbyabellin C
IC50 (KB, LoVo): 2.1 to 5.3 µM

Lyngbyabellin N
IC50 (H460, HCT116): 0.0048 to 1.8 µM

Carmabin A
IC50 (Plasmodium [4]; Pico-Green): 4.3 µM

lyngbyabellin A [Compound 7]
IC50 ([6]; P.falciparum (intraerythrocytic stage), current study, read-out: IC50): 0.3 µM | IC50 (Plasmodium [4]; Sybr Green): 0.0015 µM | IC50 (HT29, HeLA, KB, LoVo): 0.021 to 0.345 µM | IC50 [7]: 0.0015 µM

lyngbyabellin G [Compound 1]
IC50 [6, 11]: 1.1 µM | EC50 [8]: 4.41 mg/L | IC50 (MCF7 breast cancer cells [9]; [12]): 120 µM | IC50 (H460, Neuro-2a, MCF7): 2.2 to 120 µM

Venturamide A
IC50 (Plasmodium [4]; Pico-Green): 8.2 µM

Lyngbyabellin K
IC50 (µM) (H460): Inactive

Gallinamide A
IC50 (Plasmodium [4]; Pico-Green): 8.4 µM

lyngbyabellin O [Compound 2]
EC50 [8]: 0.24 mg/L | IC50 (µM) (MCF7 breast cancer cells [9]; MCF7): Inactive | IC50 (MCF7 breast cancer cells [9]; [12]): > 160 µM

Lyngbyabellin B
IC50 (HT29, HeLA, CA46, PtK2): 0.1 to 1.1 µM

lyngbyabellin P [Compound 3]
EC50 [8]: 0.62 mg/L | IC50 (MCF7 breast cancer cells [9]; MCF7, read-out: IC50): 9 µM

Ulongamide A
IC50 (Plasmodium [4]; Sybr Green): 0.99 µM

homohydroxydolabellin [Compound 6]
Cytotoxicity towards MCF7 cells (MCF7 breast cancer cells [2]): > 50 µg/mL | Cytotoxicity with respect to MCF7 breast cancer cells (in words) (MCF7 breast cancer cells [2]): non-cytotoxicity | IC50 [6, 11]: 6.4 µM

Ikoamide
IC50 (Plasmodium [3]): 0.14 µM

Lyngbyabellin I
IC50 (H460, Neuro-2a): 0.7 to 1 µM

Kakeromamide B
IC50 (Plasmodium [4]; Sybr Green): 8.9 µM
